Drawing on patent US20080051387A1, “TETRAHYDROPYRIDO[3,4-D]PYRIMIDINES AND RELATED ANALOGUES” (priority 2006, published 2008), this text covers Ki for five compounds.

In this test the target is T1, chimeric human H3 receptor (Homo sapiens, UniProt Q9Y5N1).
T1 construct: rat Galpha-i2 (Gnai2, rat); made in house; host or cells: Sf9 insect cells (baculovirus); P2 membranes
As to the kind of experiment: Chimeric human H3 receptor GTP binding assay (agonist-stimulated GTP-gamma35S binding, Example 7). It is filed as biochemical. The following applies: P2 membranes of Sf9 cells, 1 μM histamine as agonist, Ki from IC50 by Cheng-Prusoff; read-out: Ki. The source says: This Example illustrates a representative assay for evaluating agonist-stimulated GTP-gamma^35S binding (“GTP binding”) activity. […] This agonist-stimulated GTP binding activity can also be used to detect partial agonism mediated by antagonist compounds. A compound analyzed in this assay is referred to herein as a “test compound.”
Four independent baculoviral stocks (one directing the expression of the chimeric human H3 receptor and three directing the expression of each of the three subunits of a heterotrimeric G-protein) are used to infect a culture of Sƒ9 cells as described above. P2 membranes are prepared as described above, and agonist-stimulated GTP binding on the P2 membranes is assessed using histamine (Sigma Chemical Co., St. Louis, Mo.) as agonist in order to ascertain that the receptor/G-protein-alpha-beta-gamma combination(s) yield a functional response as measured by GTP binding. P2 membranes are resuspended by Dounce homogenization (tight pestle) in GTP binding assay buffer (50 mM Tris pH 7.4, 120 mM NaCl, 5 mM MgCl2, 2 mM EGTA, 1 mg/ml BSA, 0.2 mg/ml bacitracin, 0.02 mg/ml aprotinin, 0.01 mg/ml saponin, 10 μM GDP) and added to assay tubes at a concentration of 35 μg protein/reaction tube. After adding increasing doses of histamine at concentrations ranging from 10-12 M to 10^−5 M, reactions are initiated by the addition of 125 pM GTP-gamma^35S (PERKIN ELMER; Boston, Mass.) with a final assay volume of 0.20 ml. In competition experiments, non-radiolabeled test compounds are added to separate reactions at concentrations ranging from 10^−10 M to 10^−6 M along with 1 μM histamine to yield a final volume of 0.20 ml.
Neutral antagonists are antagonists that are substantially free of inherent agonist activity, and include those test compounds that reduce the histamine-stimulated GTP binding activity towards, but not below, baseline levels. In contrast, in the absence of added histamine, inverse agonists reduce the GTP binding activity of the receptor-containing membranes below baseline.
After a 60-min incubation at room temperature, reactions are terminated by vacuum filtration over WHATMAN GF/C filters (pre-soaked in wash buffer, 0.1% BSA) followed by washing with ice-cold wash buffer (50 mM Tris pH 7.4, 120 mM NaCl). The amount of receptor-bound (and thereby membrane-bound) GTP-gamma^35S is determined by measuring the filter-bound radioactivity, preferably by liquid scintillation spectrometry of the washed filters. Non-specific binding is determined in parallel assays including 10 μM unlabeled GTP-gammaS and typically represents less than 5 percent of total binding. Data is expressed as percent above basal (baseline). The results of GTP binding experiments are analyzed using SIGMAPLOT software (SPSS Inc., Chicago, Ill.). IC50 values are calculated by non-linear regression analysis of dose-response curves using Kaleidograph (Synergy Software, Reading, Pa.).
Alternatively the data is analyzed as follows. First, the average bound radioactivity from negative control wells (no agonist) is subtracted from the bound radioactivity detected for each of the other experimental wells. Second, average bound radioactivity is calculated for the positive control wells (agonist wells). Then, percent inhibition for each compound tested is calculated using the equation: [formula]
Calculated IC50 values are converted to Ki values by the Cheng-Prusoff correction (Cheng and Prusoff (1973) Biochem. Pharmacol. 22(23):3099-3108). Accordingly, the following equation: Ki=IC50/(1+[L]/EC50) is used, where [L] is the histamine concentration in the GTP binding assay, and EC50 is the concentration of histamine producing a 50% response, as determined by a dose-response analysis using concentrations of histamine ranging from 10^−10 M to 10^−6 M. […]
For orientation: GTPγS is a poorly hydrolysed GTP analogue; its binding reports G protein activation.

T1 sequence (Q9Y5N1 with tags, fused parts or gaps): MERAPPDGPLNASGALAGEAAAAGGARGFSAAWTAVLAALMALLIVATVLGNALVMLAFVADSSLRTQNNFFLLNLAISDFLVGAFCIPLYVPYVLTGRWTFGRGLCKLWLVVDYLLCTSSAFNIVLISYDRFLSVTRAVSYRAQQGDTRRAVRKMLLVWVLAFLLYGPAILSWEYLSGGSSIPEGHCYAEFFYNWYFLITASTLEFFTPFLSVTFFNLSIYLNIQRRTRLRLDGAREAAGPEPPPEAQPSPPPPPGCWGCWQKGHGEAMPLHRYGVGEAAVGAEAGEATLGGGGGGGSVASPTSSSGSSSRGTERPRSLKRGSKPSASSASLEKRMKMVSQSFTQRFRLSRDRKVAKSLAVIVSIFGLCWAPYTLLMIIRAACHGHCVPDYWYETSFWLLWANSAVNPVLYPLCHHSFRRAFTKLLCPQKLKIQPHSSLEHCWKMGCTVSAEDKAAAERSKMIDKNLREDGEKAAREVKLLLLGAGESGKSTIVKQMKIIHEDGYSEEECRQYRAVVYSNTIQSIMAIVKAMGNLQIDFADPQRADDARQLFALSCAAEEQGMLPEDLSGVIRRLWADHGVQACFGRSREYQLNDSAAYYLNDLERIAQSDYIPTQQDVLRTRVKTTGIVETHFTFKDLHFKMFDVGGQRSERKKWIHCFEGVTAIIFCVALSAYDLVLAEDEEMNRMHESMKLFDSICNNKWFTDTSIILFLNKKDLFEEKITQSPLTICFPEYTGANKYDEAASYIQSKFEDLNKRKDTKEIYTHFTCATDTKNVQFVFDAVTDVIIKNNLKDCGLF

Take `c1nc(N2CCN(C3CCC3)CC2)nc2c1CN(CC1CCCCC1)CC2` [Compound 607, 2-(4-cyclobutylpiperazin-1-yl)-6-(cyclohexylmethyl)-5,6,7,8-tetrahydropyrido[4,3-d]pyrimidine]: the Ki was under 1000 nM. As to `CC(=O)N1CCc2nc(N3CCN(C4CCC4)CC3)ncc2C1` [Compound 608, 6-acetyl-2-(4-cyclobutylpiperazin-1-yl)-5,6,7,8-tetrahydropyrido[4,3-d]pyrimidine], the Ki was under 1000 nM. On to `c1nc(N2CCN(C3CCC3)CC2)nc2c1CN(C1CCC1)CC2` [Compound 609, 6-cyclobutyl-2-(4-cyclobutylpiperazin-1-yl)-5,6,7,8-tetrahydropyrido[4,3-d]pyrimidine], for which the Ki is under 1000 nM.

Turning to `CC(=O)c1ccc(N2CCc3nc(N4CCN(C5CCC5)CC4)ncc3C2)nc1` [Compound 610, 1-{6-[2-(4-cyclobutylpiperazin-1-yl)-7,8-dihydropyrido[4,3-d]pyrimidin-6(5H)-yl]pyridin-3-yl}ethanone], the Ki is under 1000 nM. Take `CNC(=O)c1ccc(N2CCc3nc(N4CCN(C5CCC5)CC4)ncc3C2)nc1` [Compound 648, 6-[2-(4-cyclobutylpiperazin-1-yl)-7,8-dihydropyrido[4,3-d]pyrimidin-6(5H)-yl]-N-methylnicotinamide]: the Ki is under 1000 nM.

As usually defined, the Ki is a dissociation constant, usually derived from enzyme kinetics or from competition with a known ligand.
